Results taken from PubChem BioAssay AID330 (DTP/NCI, 2004).
Values joined by “and” are separate entries in the source; they are usually repeats but may differ in a detail not shown here. Identical values can stand only once. Counter-ions that a name gives are not always drawn. Toxic doses and inconclusive results are not listed. How the source made its calls: active means survival T/C of 150% or more; inactive means T/C below 125% in these data. Peptide text beside a SMILES is read from it. * marks the point of attachment. Tfa = O=C(C(F)(F)F)*

Test system: P388 leukemia ip, CD2F1 mice, survival T/C
Test: NCI In Vivo Anticancer Drug Screen. Data for tumor model P388 Leukemia (intraperitoneal) in CD2F1 (CDF1) mice
Details: endpoint: median survival time, higher = longer survival
How it was run: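 Mice carrying the transplanted tumor received test compound or vehicle. Survival was recorded in each group, and the value is the treated-group measurement divided by that of the vehicle-treated control group.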

[1] = dose: 12.5 mg/kg/injection, schedule: Q01DX001 (ip), vehicle: saline with Tween-80
[2] = dose: 25.0 mg/kg/injection, schedule: Q01DX001 (ip), vehicle: saline with Tween-80
[3] = dose: 50.0 mg/kg/injection, schedule: Q01DX001 (ip), vehicle: saline with Tween-80
[4] = dose: 50.0 mg/kg/injection, schedule: Q01DX005 (ip), vehicle: saline with Tween-80
[5] = dose: 50.0 mg/kg/injection, schedule: Q01DX005 (ip), vehicle: Klucel (hydroxypropylcellulose) (HPC)
[6] = dose: 100.0 mg/kg/injection, schedule: Q01DX005 (ip), vehicle: Klucel (hydroxypropylcellulose) (HPC)
[7] = dose: 200.0 mg/kg/injection, schedule: Q01DX005 (ip), vehicle: Klucel (hydroxypropylcellulose) (HPC)
[8] = dose: 200.0 mg/kg/injection, schedule: Q01DX001 (ip), vehicle: saline with Tween-80
[9] = dose: 6.25 mg/kg/injection, schedule: Q01DX009 (ip), vehicle: Klucel (hydroxypropylcellulose) (HPC)
[10] = dose: 50.0 mg/kg/injection, schedule: Q01DX009 (ip), vehicle: Klucel (hydroxypropylcellulose) (HPC)
[11] = dose: 100.0 mg/kg/injection, schedule: Q01DX009 (ip), vehicle: Klucel (hydroxypropylcellulose) (HPC)
[12] = dose: 200.0 mg/kg/injection, schedule: Q01DX009 (ip), vehicle: Klucel (hydroxypropylcellulose) (HPC)
[13] = dose: 50.0 mg/kg/injection, schedule: Q01DX009 (ip), vehicle: saline with Tween-80
[14] = dose: 100.0 mg/kg/injection, schedule: Q01DX009 (ip), vehicle: saline with Tween-80
[15] = dose: 200.0 mg/kg/injection, schedule: Q01DX009 (ip), vehicle: saline with Tween-80
[16] = dose: 50.0 mg/kg/injection, schedule: Q04DX003 (ip), vehicle: saline with Tween-80
[17] = dose: 100.0 mg/kg/injection, schedule: Q04DX003 (ip), vehicle: saline with Tween-80
[18] = dose: 200.0 mg/kg/injection, schedule: Q04DX003 (ip), vehicle: saline with Tween-80

Measured: T/C

CC(=O)NC1C(NNC(=O)c2ccncc2)OC(CO)C(O)C1O (centres undefined)
inactive: dose: 50.0 mg/kg/injection, schedule: Q01DX005 (ip), vehicle: saline 100 % of control | dose: 100.0 mg/kg/injection, schedule: Q01DX005 (ip), vehicle: saline 96 % of control | dose: 200.0 mg/kg/injection, schedule: Q01DX005 (ip), vehicle: saline 104 % of control

CC(N)C(=O)NC(C(=O)NC1C(O)OC(CO)C(O)C1O)C(C)C (centres undefined)
inactive: dose: 60.0 mg/kg/injection, schedule: Q01DX005 (ip), vehicle: saline 99 % of control | dose: 120.0 mg/kg/injection, schedule: Q01DX005 (ip), vehicle: saline 104 % of control | dose: 240.0 mg/kg/injection, schedule: Q01DX005 (ip), vehicle: saline 97 % of control

c1ccc2nc(N=Nc3cnc4ccccc4n3)cnc2c1
inactive: [1] 100 % of control and 93 % of control and 94 % of control | dose: 12.5 mg/kg/injection, schedule: Q01DX005 (ip), vehicle: saline with Tween-80 94 % of control | [2] 99 % of control and 94 % of control | dose: 25.0 mg/kg/injection, schedule: Q01DX005 (ip), vehicle: saline with Tween-80 94 % of control | [3] 100 % of control and 86 % of control and 97 % of control | [4] 97 % of control

CN(C)CS/C(=N\C(O)C(Cl)(Cl)Cl)NC(O)C(Cl)(Cl)Cl (centres undefined)
inactive: [5] 97 % of control | [6] 99 % of control | [7] 99 % of control

COC(=O)CC(NC(=O)C1CCCN1C(=O)C(F)(F)F)C(=O)OC (stereo not drawn) (Tfa-Pro-Asp(OMe)-OMe; configuration not given here)
inactive: dose: 100.0 mg/kg/injection, schedule: Q01DX001 (ip), vehicle: saline with Tween-80 104 % of control | [8] 101 % of control and 100 % of control | dose: 400.0 mg/kg/injection, schedule: Q01DX001 (ip), vehicle: saline with Tween-80 104 % of control

CSc1ccc(NC(=O)n2nnc3ccccc32)cc1
inactive: [9] 103 % of control and 106 % of control | dose: 12.5 mg/kg/injection, schedule: Q01DX009 (ip), vehicle: Klucel (hydroxypropylcellulose) (HPC) 102 % of control and 110 % of control | dose: 25.0 mg/kg/injection, schedule: Q01DX009 (ip), vehicle: Klucel (hydroxypropylcellulose) (HPC) 100 % of control and 111 % of control | [10] 105 % of control and 109 % of control and 120 % of control | [11] 105 % of control and 117 % of control and 124 % of control | [12] 106 % of control and 97 % of control

CCCCCCCCCCCCCCC1(C(=O)OC)CO1 (centres undefined)
inactive: dose: 6.25 mg/kg/injection, schedule: Q01DX005 (ip), vehicle: Klucel (hydroxypropylcellulose) (HPC) 94 % of control | dose: 12.5 mg/kg/injection, schedule: Q01DX005 (ip), vehicle: Klucel (hydroxypropylcellulose) (HPC) 94 % of control | [5] 102 % of control

O=[N+]([O-])c1ccc(C(Nc2nncs2)Nc2nncs2)c([N+](=O)[O-])c1
inactive: [5] 97 % of control | [6] 96 % of control | [7] 100 % of control

COc1ccc2nc3cc(Cl)ccc3c(NCCCC3CCCN4CCCCC34)c2c1 (centres undefined)
inactive: dose: 7.5 mg/kg/injection, schedule: Q01DX005 (ip), vehicle: saline with Tween-80 108 % of control | dose: 15.0 mg/kg/injection, schedule: Q01DX005 (ip), vehicle: saline with Tween-80 108 % of control | dose: 30.0 mg/kg/injection, schedule: Q01DX005 (ip), vehicle: saline with Tween-80 111 % of control

FC(F)(F)c1cccc(CSCc2c(CSCc3cccc(C(F)(F)F)c3)c(CSCc3cccc(C(F)(F)F)c3)c(CSCc3cccc(C(F)(F)F)c3)c(CSCc3cccc(C(F)(F)F)c3)c2CSCc2cccc(C(F)(F)F)c2)c1
inactive: [13] 104 % of control | [14] 98 % of control | [15] 97 % of control

NC(CCCCCCCCCCCCC(N)C(=O)c1ccccc1)C(=O)c1ccccc1 (centres undefined)
inactive: dose: 60.0 mg/kg/injection, schedule: Q01DX005 (ip), vehicle: saline with Tween-80 101 % of control | dose: 120.0 mg/kg/injection, schedule: Q01DX005 (ip), vehicle: saline with Tween-80 93 % of control | dose: 240.0 mg/kg/injection, schedule: Q01DX005 (ip), vehicle: saline with Tween-80 93 % of control

Cc1nc2ccccc2c(C(=O)NO)[n+]1[O-]
inactive: [13] 104 % of control | [14] 100 % of control | [15] 103 % of control

Cc1ccc(NCCNCCO)c2c(=O)c3ccccc3sc12
inactive: dose: 3.75 mg/kg/injection, schedule: Q01DX009 (ip), vehicle: water 100 % of control | dose: 7.5 mg/kg/injection, schedule: Q01DX009 (ip), vehicle: distilled water + Tween-80 113 % of control | dose: 7.5 mg/kg/injection, schedule: Q01DX009 (ip), vehicle: water 99 % of control | dose: 12.5 mg/kg/injection, schedule: Q01DX005 (ip), vehicle: other 113 % of control | dose: 15.0 mg/kg/injection, schedule: Q01DX009 (ip), vehicle: distilled water + Tween-80 120 % of control | dose: 15.0 mg/kg/injection, schedule: Q01DX009 (ip), vehicle: water 123 % of control | dose: 25.0 mg/kg/injection, schedule: Q01DX005 (ip), vehicle: other 120 % of control | [5] 119 % of control
active: [6] 158 % of control | [7] 155 % of control

CCCCNC(=O)OCCN(CCOC(=O)NCCCC)C(=O)N1c2ccccc2Sc2ccccc21
inactive: [16] 98 % of control | [17] 90 % of control | [18] 90 % of control

COc1ccc(C2=[N+]([O-])C(C)(C)C(c3ccccc3)C2)cc1 (centres undefined)
inactive: [10] 97 % of control | [11] 101 % of control | [12] 100 % of control

CO[C@@H]1C2=CC=CC=C[C@H]2n2c(=O)n(C)c(=O)n21
inactive: [5] 100 % of control | dose: 75.0 mg/kg/injection, schedule: Q01DX005 (ip), vehicle: other 109 % of control | [6] 98 % of control | dose: 150.0 mg/kg/injection, schedule: Q01DX005 (ip), vehicle: other 115 % of control | [7] 102 % of control | dose: 300.0 mg/kg/injection, schedule: Q01DX005 (ip), vehicle: other 111 % of control

O=[N+]([O-])c1cnc(Sc2cncc[n+]2[O-])s1
inactive: dose: 1.56 mg/kg/injection, schedule: Q01DX009 (ip), vehicle: Klucel (hydroxypropylcellulose) (HPC) 100 % of control | dose: 3.12 mg/kg/injection, schedule: Q01DX009 (ip), vehicle: Klucel (hydroxypropylcellulose) (HPC) 93 % of control | [9] 102 % of control and 90 % of control

Cc1cc(CC(O)(c2ccccc2)c2ccccc2)nc2[nH]c(=O)ccc12
inactive: dose: 25.0 mg/kg/injection, schedule: Q01DX005 (ip), vehicle: Klucel (hydroxypropylcellulose) (HPC) 97 % of control | [5] 103 % of control | [6] 98 % of control | [7] 96 % of control

COc1ccccc1N1CCN(CCCNc2cc(=O)n(C)c(=O)n2C)CC1
inactive: [10] 98 % of control | [11] 104 % of control | [12] 108 % of control

Cn1c(=O)c2nc(-c3ccc(Cl)c(Cl)c3)c(-c3ccc(Cl)c(Cl)c3)nc2n(C)c1=O
inactive: dose: 3.13 mg/kg/injection, schedule: Q01DX001 (ip), vehicle: saline with Tween-80 100 % of control | dose: 6.25 mg/kg/injection, schedule: Q01DX001 (ip), vehicle: saline with Tween-80 104 % of control | [1] 95 % of control | [2] 96 % of control | [3] 93 % of control | [8] 91 % of control

CSCCCCCCSC
inactive: [16] 100 % of control | [17] 100 % of control | [18] 109 % of control

Cc1ccc(N=Nc2c(C)noc2C)c(Br)c1
inactive: dose: 60.0 mg/kg/injection, schedule: Q01DX005 (ip), vehicle: Klucel (hydroxypropylcellulose) (HPC) 93 % of control | dose: 120.0 mg/kg/injection, schedule: Q01DX005 (ip), vehicle: Klucel (hydroxypropylcellulose) (HPC) 100 % of control | dose: 240.0 mg/kg/injection, schedule: Q01DX005 (ip), vehicle: Klucel (hydroxypropylcellulose) (HPC) 92 % of control

O=C(CN1CCCC1)Nc1nc(-c2ccc(Cl)cc2)cs1
inactive: [4] 96 % of control | dose: 100.0 mg/kg/injection, schedule: Q01DX005 (ip), vehicle: saline with Tween-80 100 % of control | dose: 200.0 mg/kg/injection, schedule: Q01DX005 (ip), vehicle: saline with Tween-80 91 % of control
